From ChEMBL document CHEMBL4346735, “Discovery and pharmacological evaluation of indole derivatives as potent and selective RORγt inverse agonist for multiple autoimmune conditions” (Bioorg Med Chem Lett, 2019)
Values after ≈ are worked out from the molar mass of the structure shown.

Tests used:
[1] = AUC (0 to 24 hrs) in mouse at 10 mg/kg, po; format: ADME, organism-based; parameters: dose 10 mg/kg, time < 24 hr, route oral; settings: in vivo
[2] = Clearance in mouse at 3 mg/kg, iv; format: ADME, organism-based; settings: in vivo
[3] = Metabolic stability in mouse liver microsomes assessed as parent compound remaining at 1 uM preincubated for 5 mins followed by NADPH addition after 30 mins by LC-MS/MS analysis; format: ADME, Microsome; settings: read-out: Stability
[4] = Cmax in mouse at 10 mg/kg, po; format: ADME, organism-based; parameters: dose 10 mg/kg, route oral; settings: in vivo
[5] = Oral bioavailability in mouse at 10 mg/kg; format: ADME, organism-based; settings: in vivo
Cytochrome P450 2D6 = Cytochrome P450 2D6 (Homo sapiens, UniProt P10635); assay: Inhibition of CYP2D6 in human liver microsomes using dextromethorphan as substrate preincubated for 5 mins followed by NADPH addition measured after 10 mins by LC-MS/MS analysis
Sequence of Cytochrome P450 2D6 (P10635 whole entry): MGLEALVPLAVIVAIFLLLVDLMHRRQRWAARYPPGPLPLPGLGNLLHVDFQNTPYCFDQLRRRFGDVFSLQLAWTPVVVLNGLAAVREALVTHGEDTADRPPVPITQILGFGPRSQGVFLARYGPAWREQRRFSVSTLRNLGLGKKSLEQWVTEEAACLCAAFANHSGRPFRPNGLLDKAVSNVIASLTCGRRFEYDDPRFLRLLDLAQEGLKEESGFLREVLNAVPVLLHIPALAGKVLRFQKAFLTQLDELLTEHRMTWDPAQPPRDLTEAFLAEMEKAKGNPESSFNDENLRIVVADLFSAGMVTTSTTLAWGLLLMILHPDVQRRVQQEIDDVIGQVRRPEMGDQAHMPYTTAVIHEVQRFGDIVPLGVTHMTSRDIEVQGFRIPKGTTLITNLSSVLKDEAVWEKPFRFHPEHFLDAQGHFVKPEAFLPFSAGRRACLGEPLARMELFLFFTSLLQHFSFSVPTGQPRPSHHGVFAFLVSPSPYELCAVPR

Cytochrome P450 1A2 = biological target: T1, Cytochrome P450 1A2 (Homo sapiens, UniProt P05177); assay: Inhibition of CYP1A2 in human liver microsomes using phenacetin as substrate preincubated for 5 mins followed by NADPH addition measured after 10 mins by LC-MS/MS analysis
T1 sequence (P05177 whole entry): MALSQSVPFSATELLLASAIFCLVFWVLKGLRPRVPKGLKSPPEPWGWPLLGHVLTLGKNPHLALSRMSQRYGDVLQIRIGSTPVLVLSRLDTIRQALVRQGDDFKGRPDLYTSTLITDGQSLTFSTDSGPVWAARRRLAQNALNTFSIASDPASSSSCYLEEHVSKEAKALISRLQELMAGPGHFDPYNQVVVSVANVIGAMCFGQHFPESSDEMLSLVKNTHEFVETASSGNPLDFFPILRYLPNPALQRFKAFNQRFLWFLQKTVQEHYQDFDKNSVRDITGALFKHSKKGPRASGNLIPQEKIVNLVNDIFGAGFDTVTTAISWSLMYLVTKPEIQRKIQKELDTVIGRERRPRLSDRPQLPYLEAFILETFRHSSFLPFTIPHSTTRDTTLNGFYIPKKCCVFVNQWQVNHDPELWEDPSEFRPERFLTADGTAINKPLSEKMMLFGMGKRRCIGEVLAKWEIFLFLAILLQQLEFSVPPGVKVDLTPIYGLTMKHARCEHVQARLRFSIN

[6] = Tmax in mouse at 10 mg/kg, po; format: ADME, organism-based; settings: in vivo
Cytochrome P450 2C19 = Cytochrome P450 2C19 (Homo sapiens, UniProt P33261); assay: Inhibition of CYP2C19 in human liver microsomes using (S)-mephenytoin as substrate preincubated for 5 mins followed by NADPH addition measured after 40 mins by LC-MS/MS analysis
Sequence of Cytochrome P450 2C19 (P33261 whole entry): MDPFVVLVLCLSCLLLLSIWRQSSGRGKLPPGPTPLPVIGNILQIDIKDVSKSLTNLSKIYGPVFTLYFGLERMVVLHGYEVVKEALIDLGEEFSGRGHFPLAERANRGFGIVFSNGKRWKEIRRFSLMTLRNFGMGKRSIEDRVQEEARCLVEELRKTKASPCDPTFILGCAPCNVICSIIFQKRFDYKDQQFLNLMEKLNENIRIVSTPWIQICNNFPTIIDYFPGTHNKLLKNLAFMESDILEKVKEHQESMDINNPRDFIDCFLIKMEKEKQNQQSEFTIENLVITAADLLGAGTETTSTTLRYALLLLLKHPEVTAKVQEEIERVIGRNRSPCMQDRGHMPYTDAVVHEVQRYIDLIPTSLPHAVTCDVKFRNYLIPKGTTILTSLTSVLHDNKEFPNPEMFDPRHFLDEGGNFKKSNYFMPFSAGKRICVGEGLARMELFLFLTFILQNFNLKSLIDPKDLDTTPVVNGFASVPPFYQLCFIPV

Cytochrome P450 3A4 [7] = biological target: T2, Cytochrome P450 3A4 (Homo sapiens, UniProt P08684); assay: Inhibition of CYP3A4 in human liver microsomes using testosterone as substrate preincubated for 5 mins followed by NADPH addition measured after 10 mins by LC-MS/MS analysis
T2 sequence (P08684 whole entry): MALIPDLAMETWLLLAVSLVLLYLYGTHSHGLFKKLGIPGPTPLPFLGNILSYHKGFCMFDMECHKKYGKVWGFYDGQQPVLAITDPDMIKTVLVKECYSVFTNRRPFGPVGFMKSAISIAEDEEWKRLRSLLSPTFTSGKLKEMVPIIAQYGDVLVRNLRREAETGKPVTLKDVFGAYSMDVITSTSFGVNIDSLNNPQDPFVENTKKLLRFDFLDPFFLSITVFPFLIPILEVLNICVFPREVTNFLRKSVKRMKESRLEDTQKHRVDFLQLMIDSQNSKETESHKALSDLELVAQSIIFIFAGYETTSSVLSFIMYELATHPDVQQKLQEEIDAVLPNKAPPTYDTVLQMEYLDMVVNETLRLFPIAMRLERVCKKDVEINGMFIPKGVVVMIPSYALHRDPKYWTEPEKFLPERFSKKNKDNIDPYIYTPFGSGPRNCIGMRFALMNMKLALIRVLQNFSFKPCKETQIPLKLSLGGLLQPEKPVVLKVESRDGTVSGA

Cytochrome P450 2C9 = Cytochrome P450 2C9 (Homo sapiens, UniProt P11712); assay: Inhibition of CYP2C9 in human liver microsomes using diclofenac as substrate preincubated for 5 mins followed by NADPH addition measured after 10 mins by LC-MS/MS analysis
Sequence of Cytochrome P450 2C9 (P11712 whole entry, the tested form may be a part): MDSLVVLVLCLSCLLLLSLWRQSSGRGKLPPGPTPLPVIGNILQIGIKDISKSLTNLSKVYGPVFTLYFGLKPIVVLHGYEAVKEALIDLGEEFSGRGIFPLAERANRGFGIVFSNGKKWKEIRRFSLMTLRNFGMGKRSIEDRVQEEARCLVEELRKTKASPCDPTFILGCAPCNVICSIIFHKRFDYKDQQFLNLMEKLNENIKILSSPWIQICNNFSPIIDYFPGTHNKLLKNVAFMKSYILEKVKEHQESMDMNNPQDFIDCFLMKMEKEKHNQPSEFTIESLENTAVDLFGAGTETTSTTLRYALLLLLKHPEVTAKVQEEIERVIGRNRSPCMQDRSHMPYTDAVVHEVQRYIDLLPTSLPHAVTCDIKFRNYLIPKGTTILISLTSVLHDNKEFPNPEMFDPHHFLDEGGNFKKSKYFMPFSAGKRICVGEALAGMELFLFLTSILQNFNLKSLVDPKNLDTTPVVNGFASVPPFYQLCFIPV

[8] = biological target: T3, Nuclear receptor ROR-alpha (Homo sapiens, UniProt P35398); assay: Inhibition of GAL4-DBD fused RORalpha LBD (unknown origin) expressed in HEK293T cells; format: cell-based
T3 sequence (P35398 whole entry): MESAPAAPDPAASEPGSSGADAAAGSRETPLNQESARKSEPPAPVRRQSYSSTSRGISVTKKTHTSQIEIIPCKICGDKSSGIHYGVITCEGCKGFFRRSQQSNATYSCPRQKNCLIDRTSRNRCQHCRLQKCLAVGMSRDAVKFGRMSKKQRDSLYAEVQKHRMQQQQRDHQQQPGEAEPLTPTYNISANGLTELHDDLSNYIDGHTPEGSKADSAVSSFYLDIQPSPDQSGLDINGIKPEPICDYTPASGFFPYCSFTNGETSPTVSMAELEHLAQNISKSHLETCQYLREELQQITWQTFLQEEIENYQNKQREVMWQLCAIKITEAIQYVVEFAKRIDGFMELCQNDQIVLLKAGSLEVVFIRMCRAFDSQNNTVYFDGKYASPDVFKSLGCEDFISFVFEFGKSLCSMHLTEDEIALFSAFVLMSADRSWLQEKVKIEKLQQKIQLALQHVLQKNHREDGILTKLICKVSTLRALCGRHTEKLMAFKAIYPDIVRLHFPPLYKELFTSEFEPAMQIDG

[9] = biological target: T4, Nuclear receptor ROR-gamma (Homo sapiens, UniProt P51449); assay: Transactivation of recombinant GAL4-DBD fused RORgammat LBD (unknown origin) expressed in HEK293T cells incubated for 18 to 24 hrs by dual-Glo luciferase assay; format: cell-based
T4 sequence (P51449 whole entry): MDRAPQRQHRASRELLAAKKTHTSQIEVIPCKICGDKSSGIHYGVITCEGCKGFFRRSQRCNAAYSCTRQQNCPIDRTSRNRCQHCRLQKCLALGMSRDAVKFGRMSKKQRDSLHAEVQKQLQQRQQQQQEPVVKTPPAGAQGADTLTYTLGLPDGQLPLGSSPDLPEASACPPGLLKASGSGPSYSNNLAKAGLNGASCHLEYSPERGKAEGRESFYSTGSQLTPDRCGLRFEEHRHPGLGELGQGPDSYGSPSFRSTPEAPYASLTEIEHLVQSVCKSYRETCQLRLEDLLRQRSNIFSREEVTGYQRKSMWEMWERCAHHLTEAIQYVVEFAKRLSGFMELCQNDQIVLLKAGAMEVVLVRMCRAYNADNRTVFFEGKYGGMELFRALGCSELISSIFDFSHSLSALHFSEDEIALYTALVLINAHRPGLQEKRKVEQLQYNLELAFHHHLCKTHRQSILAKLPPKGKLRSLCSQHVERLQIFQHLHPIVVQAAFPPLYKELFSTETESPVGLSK

[10] = Half life in mouse at 3 mg/kg, iv; format: ADME, organism-based; settings: in vivo
[11] = Metabolic stability in human liver microsomes assessed as parent compound remaining at 1 uM preincubated for 5 mins followed by NADPH addition after 30 mins by LC-MS/MS analysis; format: ADME, Microsome; settings: read-out: Stability
[12] = Volume of distribution at steady state in mouse at 3 mg/kg, iv; format: ADME, organism-based; settings: in vivo, read-out: Vdss
[13] = Metabolic stability in rat liver microsomes assessed as parent compound remaining at 1 uM preincubated for 5 mins followed by NADPH addition after 30 mins by LC-MS/MS analysis; format: ADME, Microsome; settings: read-out: Stability
[14] = Solubility of the compound at pH 7.4; settings: buffer
[15] = Solubility of the compound at pH 4; settings: buffer
[16] = Solubility of the compound at pH 2.1; settings: buffer
[17] = biological target: T4, Nuclear receptor ROR-gamma; assay: Inverse agonist activity at GST-tagged RORgammat LBD (unknown origin) using fluorescein-D22 co-activator peptide as substrate incubated for 1 hr by TR-FRET assay
Cytochrome P450 3A4 [18] = biological target: T2, Cytochrome P450 3A4; assay: Inhibition of CYP3A4 in human liver microsomes using midazolam as substrate preincubated for 5 mins followed by NADPH addition measured after 10 mins by LC-MS/MS analysis

SMILES | AUC(0-t) at 24 h [1] [µM·h] | clearance [2] [mL/min/kg] | remaining at 0.5 h, 1 µM [3] [%] | Cmax [4] [µM] | bioavailability [5] [%] | IC50 (Cytochrome P450 2D6) [µM] | IC50 (Cytochrome P450 1A2) [µM] | Tmax [6] [h] | IC50 (Cytochrome P450 2C19) [µM] | IC50 (Cytochrome P450 3A4 [7]) [µM] | IC50 (Cytochrome P450 2C9) [µM] | IC50 [8] [µM] | IC50 [9] [µM] | half-life [10] [h] | remaining at 0.5 h, 1 µM [11] [%] | Vd [12] [L/kg] | remaining at 0.5 h, 1 µM [13] [%] | solubility [14] [µM] | solubility [15] [µM] | solubility [16] [µM] | other results
O=C(O)c1ccc(-n2cc(C(=O)c3c(Cl)cccc3C(F)(F)F)c3cccnc32)c(F)c1 | 35.1 | 11 | 87 | 12.1 | 100 | > 50 | > 50 | 0.5 | > 50 | > 50 | 17.2 | > 30 | 0.015 | 3.2 | 100 | 2.4 | 73 | – | – | – | –
O=C(O)c1ccc(-n2cc(C(=O)c3c(Cl)cccc3Cl)c3cccnc32)c(F)c1 | – | – | 92 | – | – | > 10 | > 50 | – | > 50 | > 50 | 16 | – | 0.032 | – | 100 | – | 90 | > 2000 | < 1 | < 1 | –
O=C(O)c1ccc(-n2cc(C(=O)c3c(Cl)cccc3Cl)c3cccnc32)cc1 | – | – | 100 | – | – | – | – | – | – | – | – | – | 0.104 | – | 100 | – | 100 | 407 (≈ 167 µg/mL) | 3 (≈ 1.23 µg/mL) | 1 (≈ 0.411 µg/mL) | IC50 [17]: 0.02 µM
O=C(O)c1ccc(-n2cc(C(=O)c3c(Cl)cccc3C(F)(F)F)c3ccccc32)cc1 | – | – | 100 | – | – | > 50 | > 25 | – | > 50 | > 50 | 16 | – | – | – | 100 | – | 95 | 1470 (≈ 654 µg/mL) | 1 (≈ 0.444 µg/mL) | 10 (≈ 4.44 µg/mL) | IC50 (Cytochrome P450 3A4 [18]): 37 µM
O=C(O)c1ccc(-n2cc(C(=O)c3c(Cl)cccc3Cl)c3c(F)cccc32)cc1 | – | – | 100 | – | – | > 50 | > 50 | – | > 50 | 49 | > 50 | – | 0.076 | – | 100 | – | 78 | > 2000 | < 1 | < 1 | IC50 [17]: 0.025 µM; IC50 (Cytochrome P450 3A4 [18]): > 50 µM
O=C(O)c1ccc(-n2cc(C(=O)c3c(Cl)cccc3Cl)c3ccccc32)c(F)c1 | 9.1 | 21.2 | 91 | 5.7 | 52 | – | – | 0.5 | – | – | – | > 30 | – | 1.8 | 92 | 2.8 | 51 | – | – | – | –
O=C(O)c1ccc(-n2cc(C(=O)c3c(Cl)cccc3C(F)(F)F)c3c(F)cccc32)c(F)c1 | 46.5 | 4.6 | 78 | 17.5 | 62 | > 50 | > 50 | 0.5 | > 50 | – | 20.3 | > 30 | 0.016 | 2.7 | 100 | 1 | 76 | – | – | – | –
O=C(O)c1ccc(-n2cc(C(=O)c3c(F)cccc3Cl)c3ccccc32)cc1 | – | – | 100 | – | – | > 100 | 96.6 | – | > 100 | – | 9 | – | 0.199 | – | 100 | – | 100 | – | – | – | IC50 [17]: 0.02 µM; IC50 (Cytochrome P450 3A4 [18]): > 100 µM
